This is an account of results in the METLIN SMRT retention time set (Domingo-Almenara et al. 2019).

Structures are written as SMILES.

The data set in a line: gradient 5% acetonitrile 3 min, to 50% in 2 min, to 85% in 15 min, held 3 min, 100 µL/min. The settings on record: column: Zorbax Extend-C18 2.1 x 50 mm; eluents: water / acetonitrile, 0.1% formic acid. The procedure, abridged:
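In both positive and negative ionization mode, a quadrupole time-of-flight mass spectrometer coupled to HPLC analyzed pure standards run in mixtures of ~100 molecules. The Zorbax Extend-C18 column (2.1 × 50 mm, 1.8 μm) was operated at 100 μL/min with water and acetonitrile, each containing 0.1% formic acid. The dead volume was 40 μL and the dwell volume 900 μL. Retention time came from adduct peaks that were computationally picked and individually inspected by hand.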
For `CC(=O)N1CCc2cc(N3CC(C(=O)Nc4ccc(C)cc4F)CC3=O)ccc21` (configuration not stated), the RP-LC retention time was 717 s.
The molecule `CC(NC(=O)Cc1cn(C)c2ncccc12)c1ccc(F)cc1` (configuration not stated) returned an RP-LC retention time of 695 s.
The molecule `Cc1noc(C2CN(C(=O)NC(C)(C)C)CC23CCOCC3)n1` (configuration not stated) showed an RP-LC retention time of 670 s.
On to `Cc1ccc(S(=O)(=O)N2CCC(n3cnnc3C)CC2)cc1C`, for which the RP-LC retention time is 704 s.
`O=C(NCCc1csc(C2CCN(C(=O)C3CCCCC3)CC2)n1)C1CCC1` registered an RP-LC retention time of 720 s.
Next, `Cc1cc(=O)n(CC(=O)Nc2ccc(F)c(F)c2)cn1`: 620 s; `O=C(Nc1nccn(-c2ccc(F)c(Cl)c2)c1=O)c1ccc2c(c1)OCO2`: 802 s; `COc1cccc(Cn2nc(-c3nc(-c4ccc(F)cc4)no3)ccc2=O)c1`: 1060 s.
Molecule `Cc1nc(-c2cn(C(C)C)c3ncccc23)sc1C(=O)Nc1ccc2c(c1)OCCO2` had an RP-LC retention time of 1010 s.
Turning to `CN(C)C(CNC(=O)c1cc(-c2ccc3c(c2)OCCO3)on1)c1ccc(Cl)cc1` (configuration not stated), the RP-LC retention time was 705 s.
The molecule `CCOc1ccc(NC(=O)c2c(C)oc3nc(C)nc(N4CCCC4)c23)cc1` yielded an RP-LC retention time of 788 s.
The molecule `Cc1cc(C)cc(NS(=O)(=O)c2cc(-c3[nH]ncc3C(=O)N3CCCC3)oc2C)c1` came in with an RP-LC retention time of 746 s.
In turn, `CCc1ccc(S(=O)(=O)N2CCC3(CC2)NCCN=C3NCc2ccccc2OC)cc1` returned an RP-LC retention time of 779 s.
In turn, `CCC1CN(C(=O)N2CCC(C(=O)N3CCN(C(=O)c4ccco4)CC3)CC2)c2ccccc2O1` (configuration not stated) registered an RP-LC retention time of 751 s.
As to `CCCN(C)C[C@@H]1CC(F)(F)CN1C1CCN(S(=O)(=O)c2ccccc2F)CC1`, the RP-LC retention time was 712 s.
Consider `Cc1nnc2c(N3CCN(c4ccccn4)CC3)nc3ccc(C(=O)c4ccccc4)cc3n12`, for which the RP-LC retention time turned out to be 672 s.
With `O=C(NCc1ccc2c(c1)OCO2)C1CCN(C(=O)c2cc(-c3ccncc3)n[nH]2)CC1`, the RP-LC retention time was 579 s.
Next, `O=C(c1csc(S(=O)(=O)N2CCC(C(=O)N3CCCC3)CC2)c1)N1CCCC1`: 661 s; `CCc1cccc(NC(=O)Cn2c(=O)n(-c3ccc(C)cc3)c(=O)c3c2cc(C)n3C)c1`: 975 s; `O=C(c1ccc(=O)n(CCN2CCOCC2)c1)N1CCN(c2ccccc2F)CC1`: 613 s.
As for `COc1ccc(NC(=O)C2CCN(S(=O)(=O)c3ccc4c(c3)sc(=O)n4C)CC2)cc1`, the RP-LC retention time is 817 s.
For `C#CCOCC1CCN(C(=O)CSCc2ccccc2)CC1`, the RP-LC retention time was determined as 850 s.
Turning to `CCOc1ccc(NC(=O)NCCC2CCN(S(=O)(=O)c3ccccc3)CC2)cc1`, the RP-LC retention time stood at 836 s.
`COCc1cn(C2CN(C(=O)C3(c4ccccc4)CC3)C2)nn1` registered an RP-LC retention time of 688 s.
`O=C(CN1CCN(C(=O)Nc2ccc(Br)cc2)CC1=O)Nc1ccc(F)cc1F` displayed an RP-LC retention time of 1020 s.
In turn, `O=C(NCCCn1ccnc1)C1CC(=O)N(CCc2c[nH]c3ccc(F)cc23)C1` (configuration not stated) gave an RP-LC retention time of 594 s.
As to `CCCn1cc(CCNC(=O)Nc2ccc(OC)cc2)c2cccnc21`, the RP-LC retention time was found to be 713 s.
As to `COc1ccc(F)cc1S(=O)(=O)N1CCCC(Cn2c(C)nc3cccnc32)C1` (configuration not stated), the RP-LC retention time came out at 680 s.
Molecule `Cc1noc(CNC(=O)C2CCN(C(=O)c3snnc3C)CC2)n1` returned an RP-LC retention time of 563 s.
The molecule `COc1ccc(-c2ncc3c(n2)CCN(C(=O)Nc2ccc(C)cc2C)C3)cc1` yielded an RP-LC retention time of 644 s.
In turn, `COc1ccc(OC)c(NC(=O)Cn2c(-c3ccc(Cl)cc3)nc(C)cc2=O)c1` registered an RP-LC retention time of 1220 s.
Take `O=c1ccn(-c2cccc(F)c2)nc1-c1nc(-c2cccc(F)c2)no1`: the RP-LC retention time worked out at 906 s.
